For this experiment, the system named is NF-kB transcriptional activity in HEK-293-NF-kB-Luc cell line overexpressing MALT1. Nature of the experiment: NF-kB reporter assay (luciferase, MALT1 stably overexpressed). Conditions: Homo sapiens, 24 h, HEK-293-NF-kB-Luc cells stably overexpressing MALT1, 24 h treatment, Bright Glo luminescence; read-out: NF-kB inhibition IC50. It counts as cell-based. The procedure:
The NF-⇐B reporter assay was performed to screen for MALT1 inhibition mediated reduction in the NF-⇐B transcriptional activity. For this purpose, MALT1 was stably overexpressed in HEK-293—NF-⇐B-Luc cell line. Cells were seeded in poly-D-lysine coated 96-well plates in a culture medium containing the selection markers (DMEM+10% FBS+50 |g/ml Hygromycin+500 |g/ml Geniticin) and allowed to adhere overnight. On the following day, cells were treated with various concentrations of test compounds for 24 h. After 24 h of treatment with test compounds, media was removed from each well and Bright Glo™ (Promega, USA) substrate was added and incubated for further 10 min at ambient temperature. Luminescence was measured for detection of NF-⇐B reporter activity. RLUs (Relative Luminescence Units) were directly proportional to the NF-⇐B activity. % inhibition of NF-⇐B activity was calculated relative to the samples containing media with 0.1% DMSO alone as per the following formula
As for `Cc1nc2c(N3CCCOCC3)c(NC(=O)Nc3cnc(-n4nccn4)c(Cl)c3)cnc2s1` [Compound 67, 1-(5-Chloro-6-(2H-1,2,3-triazol-2-yl)pyridin-3-yl)-3-(2-methyl-7-(1,4-oxazepan-4-yl)thiazolo[5,4-b]pyridin-6-yl)urea], the IC50 was 101 to 500 nM.
Then `COC(C)c1c(NC(=O)Nc2cnc(-n3ccnn3)c(C(F)(F)F)c2)cnc2sc(C)nc12` (single isomer, unassigned) [Compound 141a, 1-(6-(1H-1,2,3-Triazol-1-yl)-5-(trifluoromethyl)pyridin-3-yl)-3-(7-(1-methoxyethyl)-2-methylthiazolo[5,4-b]pyridin-6-yl)urea], with 1 to 100 nM.
As for `COc1nc(-n2nccn2)c(Cl)cc1NC(=O)Nc1cnc2sc(C)nc2c1C(OC)C(C)C` (stereo not shown) [Compound 81a, 1-(5-Chloro-2-methoxy-6-(2H-1,2,3-triazol-2-yl)pyridin-3-yl)-3-(7-(1-methoxy-2-methylpropyl)-2-methylthiazolo[5,4-b]pyridin-6-yl)urea], the IC50 was 1 to 100 nM.
Turning to `COC(C)c1c(NC(=O)Nc2cnc(-n3ccnn3)c(Cl)c2)cnc2sc(C)nc12` (single isomer, unassigned) [Compound 123b, 1-(5-Chloro-6-(1H-1,2,3-triazol-1-yl)pyridin-3-yl)-3-(7-(1-methoxyethyl)-2-methylthiazolo[5,4-b]pyridin-6-yl)urea], the half-inhibitory concentration (IC50) was in the range of 1 to 100 nM.
Turning to `Cc1nc2c(N(C)C3CC3)c(NC(=O)Nc3cnc(-n4nccn4)c(C(F)(F)F)c3)cnc2s1` [Compound 100, 1-(6-(2H-1,2,3-Triazol-2-yl)-5-(trifluoromethyl)pyridin-3-yl)-3-(7-(cyclopropyl(methyl)amino)-2-methylthiazolo[5,4-b]pyridin-6-yl)urea], the 50% inhibitory concentration (IC50) lay within 1 to 100 nM.
The figure for `COc1ncc(NC(=O)Nc2cnc3sc(C)nc3c2C2CCCO2)cc1Cl` (single isomer, unassigned) [Compound 135a, 1-(5-Chloro-6-methoxypyridin-3-yl)-3-(2-methyl-7-(tetrahydrofuran-2-yl)thiazolo[5,4-b]pyridin-6-yl)urea] is 1 to 100 nM.
Then `CCOC(C)c1c(NC(=O)Nc2cc(Cl)c(-n3nccn3)nc2OC)cnc2sc(C)nc12` (single isomer, unassigned) [Compound 166b, 1-(5-Chloro-2-methoxy-6-(2H-1,2,3-triazol-2-yl)pyridin-3-yl)-3-(7-(1-ethoxyethyl)-2-methylthiazolo[5,4-b]pyridin-6-yl)urea], with 1 to 100 nM.
Then `Cc1nc2c(C3CC3)c(NC(=O)Nc3ccc(-n4ncnc4C)c(Cl)c3)cnc2s1` [Compound 174, 1-(3-Chloro-4-(5-methyl-1H-1,2,4-triazol-1-yl)phenyl)-3-(7-cyclopropyl-2-methylthiazolo[5,4-b]pyridin-6-yl)urea], with 501 to 1500 nM; and `Cc1nc2c(C3(C)CC3)c(NC(=O)Nc3cnc(-n4nccn4)c(C(F)(F)F)c3)cnc2s1` [Compound 177, 1-(6-(2H-1,2,3-triazol-2-yl)-5-(trifluoromethyl)pyridin-3-yl)-3-(2-methyl-7-(1-methyleyelopropyl)thiazolo[5,4-b]pyridin-6-yl)urea], with 1 to 100 nM; and `COc1nc(-n2ccnn2)c(Cl)cc1NC(=O)Nc1cnc2sc(C)nc2c1C(C)OC` (single isomer, unassigned) [Compound 91a, 1-(5-Chloro-2-methoxy-6-(1H-1,2,3-triazol-1-yl)pyridin-3-yl)-3-(7-(1-methoxyethyl)-2-methylthiazolo[5,4-b]pyridin-6-yl)urea], with 1 to 100 nM.
As to `COc1ncc(Cl)cc1NC(=O)Nc1cnc2sc(C)nc2c1C(C)OC` (single isomer, unassigned) [Compound 120b, 1-(5-chloro-2-methoxypyridin-3-yl)-3-(7-(1-methoxyethyl)-2-methylthiazolo[5,4-b]pyridin-6-yl)urea], the IC50 was in the range of 1 to 100 nM.
`CCOC(C)c1c(NC(=O)Nc2ccc(-n3nccn3)c(Cl)c2)cnc2sc(C)nc12` (racemic) [Compound 161, 1-(3-Chloro-4-(2H-1,2,3-triazol-2-yl)phenyl)-3-(7-(1-ethoxyethyl)-2-methylthiazolo[5,4-b]pyridin-6-yl)urea]: the IC50 lay in the range of 1 to 100 nM.
The figure for `COC(c1ccccc1)c1c(NC(=O)Nc2ccc(-n3nccn3)c(Cl)c2)cnc2sc(C)nc12` (stereo not shown) [Compound 82b, 1-(3-Chloro-4-(2H-1,2,3-triazol-2-yl)phenyl)-3-(7-(methoxy(phenyl)methyl)-2-methylthiazolo[5,4-b]pyridin-6-yl)urea] is 101 to 500 nM; for `Cc1nc2c(C(C3CC3)N(C)C)c(NC(=O)Nc3cnc(-n4nccn4)c(Cl)c3)cnc2s1` (stereo not shown) [Compound 228b, 1-(5-Chloro-6-(2H-1,2,3-triazol-2-yl)pyridin-3-yl)-3-(7-(cyclopropyl(dimethylamino)methyl)-2-methylthiazolo[5,4-b]pyridin-6-yl)urea] it is 1 to 100 nM.
The figure for `COc1ncc(NC(=O)Nc2cnc3sc(C)nc3c2C2CC2)cc1C#N` [Compound 62, 1-(5-Cyano-6-methoxypyridin-3-yl)-3-(7-cyclopropyl-2-methylthiazolo[5,4-b]pyridin-6-yl)urea] is 101 to 500 nM; for `COc1ncc(NC(=O)Nc2cnc3sc(C)nc3c2C2(C)CC2)cc1Cl` [Compound 117, 1-(5-Chloro-6-methoxypyridin-3-yl)-3-(2-methyl-7-(1-methylcyclopropyl)thiazolo[5,4-b]pyridin-6-yl)urea] it is 1 to 100 nM; for `COCCN(c1c(NC(=O)Nc2ccc(-n3nccn3)c(Cl)c2)cnc2sc(C)nc12)C1CC1` [Compound 68, 1-(3-Chloro-4-(2H-1,2,3-triazol-2-yl)phenyl)-3-(7-(cyclopropyl(2-methoxyethyl)amino)-2-methylthiazolo[5,4-b]pyridin-6-yl)urea] it is 101 to 500 nM.
Then `COc1ncc(NC(=O)Nc2cnc3sc(C)nc3c2C2=CCOCC2)cc1Cl` [Compound 58, 1-(5-Chloro-6-methoxypyridin-3-yl)-3-(7-(3,6-dihydro-2H-pyran-4-yl)-2-methylthiazolo[5,4-b]pyridin-6-yl)urea], with 501 to 1500 nM; and `COc1ccc(NC(=O)Nc2cnc3sc(C)nc3c2C(C)OC)cc1Cl` (single isomer, unassigned) [Compound 118b, 1-(3-chloro-4-methoxyphenyl)-3-(7-(1-methoxyethyl)-2-methylthiazolo[5,4-b]pyridin-6-yl)urea], with 101 to 500 nM.
Take `COC(C)c1c(NC(=O)Nc2cc(C(F)(F)F)cn(C)c2=O)cnc2sc(C)nc12` (single isomer, unassigned) [Compound 133b, 1-(7-(1-methoxyethyl)-2-methylthiazolo[5,4-b]pyridin-6-yl)-3-(1-methyl-2-oxo-5-(trifluoromethyl)-1,2-dihydropyridin-3-yl)urea]: the IC50 is 501 to 1500 nM.
As for `CCC(c1c(NC(=O)Nc2cnc(-n3nccn3)c(C(F)(F)F)c2)cnc2sc(C)nc12)N1CC(F)(F)C1` (stereo not shown) [Compound 229b, 1-(6-(2H-1,2,3-Triazol-2-yl)-5-(trifluoromethyl)pyridin-3-yl)-3-(7-(1-(3,3-difluoroazetidin-1-yl)propyl)-2-methylthiazolo[5,4-b]pyridin-6-yl)urea], the IC50 was in the range of 1 to 100 nM.
Then `COc1nc(-n2nccn2)c(C(F)(F)F)cc1NC(=O)Nc1cnc2sc(C)nc2c1C(C)OC` (stereo not shown) [Compound 88a, 1-(2-Methoxy-6-(2H-1,2,3-triazol-2-yl)-5-(trifluoromethyl)pyridin-3-yl)-3-(7-(1-methoxyethyl)-2-methylthiazolo[5,4-b]pyridin-6-yl)urea], with 1 to 100 nM; and `Cc1nc2c(C3CCCO3)c(NC(=O)Nc3ccc(-n4nccn4)c(Cl)c3)cnc2s1` (single isomer, unassigned) [Compound 137a, 1-(3-Chloro-4-(2H-1,2,3-triazol-2-yl)phenyl)-3-(2-methyl-7-(tetrahydrofuran-2-yl)thiazolo[5,4-b]pyridin-6-yl)urea], with 1 to 100 nM; and `COCC(C)N(C)c1c(NC(=O)Nc2cnc(-n3nccn3)c(Cl)c2)cnc2sc(C)nc12` (stereo not shown) [Compound 53a, 1-(5-Chloro-6-(2H-1,2,3-triazol-2-yl)pyridin-3-yl)-3-(7-((1-methoxypropan-2-yl)(methyl)amino)-2-methylthiazolo[5,4-b]pyridin-6-yl)urea], with 1 to 100 nM.
Take `COc1cc(-n2ccnn2)c(Cl)cc1NC(=O)Nc1cnc2sc(C)nc2c1C(C)OC` (single isomer, unassigned) [Compound 132b, 1-(5-Chloro-2-methoxy-4-(1H-1,2,3-triazol-1-yl)phenyl)-3-(7-(1-methoxyethyl)-2-methylthiazolo[5,4-b]pyridin-6-yl)urea]: the IC50 was 1 to 100 nM.
Regarding `Cc1nc2c(C3CC3)c(NC(=O)Nc3ccc(-c4nnco4)c(Cl)c3)cnc2s1` [Compound 63, 1-(3-Chloro-4-(1,3,4-oxadiazol-2-yl)phenyl)-3-(7-cyclopropyl-2-methylthiazolo[5,4-b]pyridin-6-yl)urea], the IC50 was 101 to 500 nM.
Then `COC(C)c1c(NC(=O)Nc2cnc(OC(F)F)c(Cl)c2)cnc2sc(C)nc12` (single isomer, unassigned) [Compound 149a, 1-(5-Chloro-6-(difluoromethoxy)pyridin-3-yl)-3-(7-(1-methoxyethyl)-2-methylthiazolo[5,4-b]pyridin-6-yl)urea], with 1 to 100 nM; and `Cc1nc2c(C(C)C)c(NC(=O)Nc3ccc(-n4nccn4)c(Cl)c3)cnc2s1` [Compound 188, 1-(3-Chloro-4-(2H-1,2,3-triazol-2-yl)phenyl)-3-(7-isopropyl-2-methylthiazolo[5,4-b]pyridin-6-yl)urea], with 101 to 500 nM.
